The values that follow come from patent publication US6552001B1, “Method breeding and feeds” (Takara Shuzo Co., Ltd., priority 1998, dated 2003).

Format in all cases: in vivo
Data set [1] is described as follows: single oral administration to a mouse, death. The note with it: single dosage of 100 mg/kg.
For data set [2], the system named is lymphocystis disease. The data set is described as follows: soaking plus feed for bastard halibuts with lymphocystis disease cultured on land (Example 1). The settings on record: fishes without lymphocystis disease (preventive). As to the method: Then, the water was replaced with seawater. A feed for diseased bastard halibuts was prepared by adding 7 kg of the heat treatment product of alginic acid to 134 kg of the moist feed as shown in Table 1 below. The feed was given to the soaked bastard halibuts twice a day such that the heat treatment product of alginic acid was given at 0.78 g/kg/day.

Data set [3] relates to lymphocystis disease. The data set is described as follows: feed for bastard halibuts with lymphocystis disease cultured in sea (Example 2). The settings on record: fishes without infection similarly treated. As to the method: A feed for young bastard halibuts (average body weight: 350 g) suffered from lymphocystis disease during culturing in sea was prepared by adding 3 kg of the heat treatment product of alginic acid as described in Referential Example 1-(1) to 136 kg of the moist feed as shown in Table 2 below. The feed was given to the fishes once in two days such that the heat treatment product of alginic acid was given at 1.2 g/kg/feeding.

Data set [4] relates to gliding bacteria disease. Kind of data set: young bastard halibuts with gliding bacteria disease, soaking or feed (Example 3). The note with it: fishes without infection similarly treated. As to the method:
Young bastard halibuts with gliding bacteria disease (body weight: about 4 g) cultured on land were divided into four groups. Effect of the heat treatment product of alginic acid as described in Referential Example 1-(1) on gliding bacteria disease was examined.
Control group: 2400 young bastard halibuts were fed with commercially available dry pellets (Otohime No. 4: Nisshin Flour Milling) once a day. They were bred in a 25000-l seawater tank.
Soaked group: A water tank for soaking was prepared by adding 880 g of the heat treatment product of alginic acid to 400 l of seawater and starting oxygen supply. 2375 young bastard halibuts were distributed in baskets such that several hundreds of the fishes were contained in a basket. They were soaked in the water tank for soaking for 30 minutes. After soaking, they were bred in a 25000-l seawater tank being fed with commercially available dry pellets once a day.
Group administered with the heat treatment product of alginic acid (1): 2380 young bastard halibuts were bred in a 25000-l seawater tank being fed once a day with a feed prepared by adding 500 g of the heat treatment product of alginic acid to 78 kg of a moist feed as shown in Table 3 below. […]

Data set [5] concerns white-mouth disease. Kind of data set: feed for tiger globefishes with white-mouth disease (Example 4). The note with it: fishes without infection similarly treated. As to the method:
A feed containing the heat treatment product of alginic acid to be given a day to 2000 tiger globefishes (average body weight: 450 g) suffered from white-mouth disease during culturing in sea was prepared upon use as follows. 1.11 kg of the heat treatment product of alginic acid as described in Referential Example 1-(1) was dissolved in water to a volume of 1.5 l. 10 kg of dry pellet feed (Otohime for globefish: Nisshin Flour Milling) was soaked with the solution. The entire feed was given to the fishes once a day such that 20 mg/kg body weight/day of cyclopentenone was given (group administered with the feed containing the heat treatment product of alginic acid).
As a control, 10 kg of the dry pellet feed (otohime for globefish: Nisshin Flour Milling) was given to 2000 tiger globefishes with white-mouth disease (average body weight: 450 g) once a day (control group)

For `O=C1C=CC(O)C1O` (centres unmarked) [cyclopentenone, 4,5-dihydroxy-2-cyclopenten-1-one], the death entry in data set [1] was “No death”. Further, the “occurrence of lymphocystis disease” value in data set [2] is given as “no occurrence”. Besides, the occurrence of infection result in data set [3], in data set [4] and in data set [5] was “no occurrence of infection” throughout.
